According to patent US9868720B2 (Genentech, Inc., priority 2013, dated 2018):

Biological target: DLK kinase (N-terminally GST-tagged DLK, catalytic domain amino acid 1-520) (Homo sapiens (Human), UniProt Q12852)
Assay: DLK TR-FRET assay
Format: biochemical
Details: 30 μM ATP, MKK4 K131M substrate, read-out: DLK HTRF (Ki)
Protocol: DLK TR-FRET assay: DLK kinase reactions (20 μL) containing 5 nM N-terminally GST-tagged DLK (catalytic domain amino acid 1-520) (Carna Bioscience), 40 nM N-terminally HIS-tagged MKK4 K131M substrate, and 30 μM ATP in kinase reaction buffer (50 mM HEPES, pH 7.5, 0.01% Triton X-100, 0.01% Bovine γ-Globulins, 2 mM DTT, 10 mM MgCl2 and 1 mM EGTA), and testing compound 1:3 serial diluted starting at 20 uM were incubated at ambient temperature for 60 minutes in 384 well OptiPlate (Perkin Elmer). To quench kinase reactions and detect phosphorylated MKK4, 15 μL of TR-FRET antibody mixture containing 2 nM anti-phosphorylated MKK4 labeled with Europium cryptate (Cisbio) and 23 nM anti-HIS labeled with D2 (Cisbio) in detection buffer (25 mM Tris pH 7.5, 100 mM NaCl, 100 mM EDTA, 0.01% Tween-20, and 200 mM KF) was added to the reaction mixture. The detection mixture was incubated for 3 hours at ambient temperature and the TR-FRET was detected with an EnVision multilabel plate reader (Perkin-Elmer) using the LANCE/DELFIA Dual Enh label from Perkin-Elmer (excitation filter: UV2 (TRF) 320 and emission filters: APC 665 and Europium 615).

Sequence of DLK kinase (N-terminally GST-tagged DLK, catalytic domain amino acid 1-520) (Q12852 1-520): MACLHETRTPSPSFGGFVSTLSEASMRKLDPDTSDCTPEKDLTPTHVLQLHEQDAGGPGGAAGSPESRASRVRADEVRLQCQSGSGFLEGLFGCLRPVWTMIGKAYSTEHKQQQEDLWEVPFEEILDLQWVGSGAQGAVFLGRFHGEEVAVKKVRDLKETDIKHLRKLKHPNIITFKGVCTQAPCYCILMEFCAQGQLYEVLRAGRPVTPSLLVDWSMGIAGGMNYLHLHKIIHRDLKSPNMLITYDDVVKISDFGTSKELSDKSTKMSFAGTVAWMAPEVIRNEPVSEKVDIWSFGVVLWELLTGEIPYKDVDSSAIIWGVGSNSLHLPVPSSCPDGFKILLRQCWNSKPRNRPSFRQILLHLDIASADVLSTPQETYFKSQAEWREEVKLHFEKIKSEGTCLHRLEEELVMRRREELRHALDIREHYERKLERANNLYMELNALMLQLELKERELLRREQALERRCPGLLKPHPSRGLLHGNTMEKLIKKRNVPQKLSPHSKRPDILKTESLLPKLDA

Ki | Compound
0.0436 µM | Cc1nc(Nc2cc(C(F)(F)F)ccn2)cc(C2CCCN(C(=O)c3ccc(F)cc3)C2)n1 (stereo not drawn) [Example 22, (4-Fluoro-phenyl)-{3-[2-methyl-6-(4-trifluoro-methyl-pyridin-2-ylamino)-pyrimidin-4-yl]-piperidin-1-yl}-methanone]
0.00612 µM | CC1CCCN1c1nc(Nc2cc(C(F)(F)F)ccn2)cc(C2CCN(C)C(=O)C2)n1 (stereo not drawn) [Example 332, 1-Methyl-4-[2-(2-methyl-pyrrolidin-1-yl)-6-(4-trifluoromethyl-pyridin-2-ylamino)-pyrimidin-4-yl]-piperidin-2-one]
0.795 µM | Cc1nc(Nc2cc(C(N)=O)ccn2)cc(C2CCCN(C(=O)c3ccccc3)C2)n1 (stereo not drawn) [Example 8]
0.0435 µM | FC(F)(F)c1ccnc(Nc2cc(C3CCOCC3)nc(N3CCc4nc[nH]c4C3)n2)c1 [Example 252, [2-(3,4,6,7-Tetrahydro-imidazo[4,5-c]pyridin-5-yl)-6-(tetrahydro-pyran-4-yl)-pyrimidin-4-yl]-(4-trifluoromethyl-pyridin-2-yl)-amine]
0.0433 µM | CC(=O)N1CCC(c2cc(Nc3cc(C(F)(F)F)ccn3)nc(N3CCC(C(F)(F)F)C3)n2)CC1 (stereo not drawn) [Example 206, 1-{4-[6-(4-Trifluoromethyl-pyridin-2-ylamino)-2-(3-trifluoromethyl-pyrrolidin-1-yl)-pyrimidin-4-yl]-piperidin-1-yl}-ethanone]
0.05 µM | Cc1ccnc(Nc2cc(C3CCN(C(=O)c4ccccc4)CC3)nc(N3CCCC3)n2)c1 [Example 25, {4-[6-(4-Methyl-pyridin-2-ylamino)-2-pyrrolidin-1-yl-pyrimidin-4-yl]-piperidin-1-yl}-phenyl-methanone]
0.037 µM | N#CCC(=O)N1CCCC(c2cc(Nc3cc(C(F)(F)F)ccn3)nc(C3CC3)n2)C1 (stereo not drawn) [Example 173, 3-{3-[2-Cyclopropyl-6-(4-trifluoromethyl-pyridin-2-ylamino)-pyrimidin-4-yl]-piperidin-1-yl}-3-oxo-propionitrile]
0.122 µM | CS(=O)(=O)N1CCCC(c2cc(Nc3cc(C(F)(F)F)ccn3)nc(C3CCOC3)n2)C1 (stereo not drawn) [Example 401, [6-(1-Methanesulfonyl-piperidin-3-yl)-2-(tetrahydro-furan-3-yl)-pyrimidin-4-yl]-(4-trifluoromethyl-pyridin-2-yl)-amine]

The remaining lines, values behind:

Compound | Ki
CC(C)Cc1nc(Nc2cc(C(F)(F)F)ccn2)cc(C2CCCN(C(=O)C(F)F)C2)n1 (stereo not drawn) [Example 195, 2,2-Difluoro-1-{3-[2-isobutyl-6-(4-trifluoromethyl-pyridin-2-ylamino)-pyrimidin-4-yl]-piperidin-1-yl}-ethanone] | 0.143 µM
CN1CCC(c2cc(Nc3cc(C(F)(F)F)ccn3)nc(N3CC4CC3CO4)n2)C1 (stereo not drawn) [Example 274, [6-(1-Methyl-pyrrolidin-3-yl)-2-(2-oxa-5-aza-bicyclo[2.2.1]hept-5-yl)-pyrimidin-4-yl]-(4-trifluoromethyl-pyridin-2-yl)-amine] | 0.0463 µM
CC(=O)N1CCC(c2cc(Nc3cc(C(F)(F)F)ccn3)nc(N3CC(F)C(F)C3)n2)CC1 (stereo not drawn) [Example 250, 1-{4-[2-(3,4-Difluoro-pyrrolidin-1-yl)-6-(4-trifluoromethyl-pyridin-2-ylamino)-pyrimidin-4-yl]-piperidin-1-yl}-ethanone] | 0.0267 µM
CN1CCC(c2cc(Nc3cc(C(F)(F)F)ccn3)nc(N3CC(C#N)C3)n2)C1 (stereo not drawn) [Example 328, 1-[4-(1-Methyl-pyrrolidin-3-yl)-6-(4-trifluoromethyl-pyridin-2-ylamino)-pyrimidin-2-yl]-azetidine-3-carbonitrile] | 0.147 µM
Cn1cc(-c2nc(Nc3cc(C(F)(F)F)ccn3)cc(C3CCN(CC4CCOCC4)C3)n2)cn1 (stereo not drawn) [Example 423, {2-(1-Methyl-1H-pyrazol-4-yl)-6-[1-(tetrahydro-pyran-4-ylmethyl)-pyrrolidin-3-yl]-pyrimidin-4-yl}-(4-trifluoromethyl-pyridin-2-yl)-amine] | 0.00521 µM
C[C@@H]1CCCN1c1nc(Nc2cc(C(F)(F)F)ccn2)cc(C2CCN(S(C)(=O)=O)CC2)n1 [Example 330, [6-(1-Methanesulfonyl-piperidin-4-yl)-2-((R)-2-methyl-pyrrolidin-1-yl)-pyrimidin-4-yl]-(4-trifluoromethyl-pyridin-2-yl)-amine] | 0.0318 µM
CCc1ccnc(Nc2cc(C3CCCN(C(=O)c4ccccc4)C3)nc(C)n2)c1 (stereo not drawn) | 0.195 µM
CC1CCCN1c1nc(Nc2cc(C(F)(F)F)ccn2)cc(C2CCN(C(=O)CC#N)CC2)n1 (stereo not drawn) [Example 177, 3-{4-[2-(2-Methyl-pyrrolidin-1-yl)-6-(4-trifluoromethyl-pyridin-2-ylamino)-pyrimidin-4-3yl]-piperidin-1-yl}-3-oxo-propionitrile] | 0.00803 µM
CC1CCCN1c1nc(Nc2cc(C(F)(F)F)ccn2)cc(C2CCN(C(=O)Cn3ccnc3)C2)n1 (stereo not drawn) [Example 402, 2-Imidazol-1-yl-1-{3-[2-(2-methyl-pyrrolidin-1-yl)-6-(4-trifluoromethyl-pyridin-2-ylamino)-pyrimidin-4-yl]-pyrrolidin-1-yl}-ethanone] | 0.00159 µM
CC(=O)N1CCC(c2cc(Nc3cc(C)ccn3)nc(N3CCCC3)n2)C1 (stereo not drawn) [Example 89, 1-{3-[6-(4-Methyl-pyridin-2-ylamino)-2-pyrrolidin-1-yl-pyrimidin-4-yl]-pyrrolidin-1-yl}-ethanone] | 0.059 µM
Cc1ccnc(Nc2cc(C3CCCN(Cc4cn5ccccc5n4)C3)nc(C)n2)c1 (stereo not drawn) [Example 51, [6-(1-Imidazo[1,2-a]pyridin-2-ylmethyl-piperidin-3-yl)-2-methyl-pyrimidin-4-yl]-(4-methyl-pyridin-2-yl)-amine] | 0.166 µM
Cc1ccnc(Nc2cc(C3CCCN(Cc4ccc5nccn5c4)C3)nc(C)n2)c1 (stereo not drawn) [Example 49, [6-(1-Imidazo[1,2-a]pyridin-6-ylmethyl-piperidin-3-yl)-2-methyl-pyrimidin-4-yl]-(4-methyl-pyridin-2-yl)-amine] | 0.31 µM
FC(F)(F)c1ccnc(Nc2cc(C3CCOCC3)nc(N3CC4CCC(C3)O4)n2)c1 [Example 296, [2-(8-Oxa-3-aza-bicyclo-[3.2.1]oct-3-yl)-6-(tetra-hydro-pyran-4-yl)-pyrimidin-4-yl]-(4-trifluoro-methyl-pyridin-2-yl)-amine] | 0.174 µM
O=C(C(F)F)N1CCC(c2cc(Nc3cc(C(F)(F)F)ccn3)nc(N3CC4CCC(C3)O4)n2)C1 (stereo not drawn) [Example 373, 2,2-Difluoro-1-{3-[2-(8-oxa-3-aza-bicyclo[3.2. 1]oct-3-yl)-6-(4-trifluoro-methyl-pyridin-2-ylamino)-pyrimidin-4-yl]-pyrrolidin-1-yl}-ethanone] | 0.173 µM
CC(C)Oc1nc(Nc2cc(C(F)(F)F)ccn2)cc(C2CCOCC2)n1 [Example 350, [2-Isopropoxy-6-(tetrahydro-pyran-4-yl)-pyrimidin-4-yl]-(4-trifluoromethyl-pyridin-2-yl)-amine] | 0.0475 µM
CC(=O)N1CCC(C#N)(c2cc(Nc3cc(C(F)(F)F)ccn3)nc(N3CCC(F)(F)C3)n2)CC1 [Example 156, 1-Acetyl-4-[2-(3,3-difluoro-pyrrolidin-1-yl)-6-(4-trifluoromethyl-pyridin-2-ylamino)-pyrimidin-4-yl]-piperidine-4-carbonitrile] | 0.0269 µM

System: phosphorylation of JNK in HEK293 cells stably transfected with doxycycline-inducible Flag-tagged full length DLK
Assay: pJNK Cell based assay
Details: Homo sapiens; HEK293 cells with doxycycline-induced DLK, 5.5 hours compound treatment, pJNK mean intensity by imaging; read-out: p-JNK 293 IC50
Protocol: pJNK Cell based assay:HEK293 cells stably transfected with doxycycline-inducible N-terminally Flag-tagged full length DLK were plated at density of 7500 cells/well (40 μL) in 384-well Greiner bio-one μclear plate coated with Poly-D-Lysine. The cells were incubated at 37° C. in DMEM (Dulbecco's Modified Eagle Medium) media containing 10% FBS and 2 mM L-Glutamine for 20-24 hours. 5 μL of 60 μM doxycycline was added to the cells to initiate DLK expression for 20 hours at 37° C. No doxycycline was added for the negative control wells. 5 μL of compounds of formula I in various concentrations in DMEM were added to the cells and the compound treated cell culture was incubated at 37° C. for 5.5 hours prior to fixation with addition of 50 μL 4% paraformaldehyde. The wells were washed with 40 μL PBS wash twice followed by permeabilization with 0.1% Triton X-100. The cells were washed with 40 μL PBS wash twice again prior to incubation in 20 μL SuperBlock (Thermo Scientific) for 1 hour at ambient temperature. The primary antibodies (1:3000 mouse anti-Flag and 1:1000 rabbit anti-pJNK in SuperBlock) were incubated with the fixed cells overnight at 4° C. The cells were washed with 40 μL PBS twice before the addition of secondary antibodies (Anti-mouse labeled with AlexaFluor555 and anti-rabbit labeled with AlexaFluor488 in 1:2000 dilution in SuperBlock). The secondary antibodies were incubated at ambient temperature for 2 hours and were protected from light. The cells were washed with 40 μL PBS before the addition of 20 μL Hoechst 33342 (1:5000 in PBS). The plate was sealed and stored at 4° C. in the dark until imaging analyses on Opera High Content Screening System (Evotec). Three data points were reported: pJNK (mean intensity inside the search stencil), DLK (mean intensity of the 1% brightest pixels inside the search stencil) and nuclear area.

Compound | IC50
FC1(F)CCN(c2nc(Nc3cc(C4CCC4)ccn3)cc(C3CCNCC3)n2)C1 [(4-Cyclobutyl-pyridin-2-yl)-[2-(3,3-difluoro-pyrrolidin-1-yl)-6-piperidin-4-yl-pyrimidin-4-yl]-amine] | 0.2 µM
FC(F)(F)c1ccnc(Nc2cc(C3CCOCC3)nc(N3CC4CC3CO4)n2)c1 (stereo not drawn) [[2-(2-Oxa-5-aza-bicyclo[2.2.1]hept-5-yl)-6-(tetrahydro-pyran-4-yl)-pyrimidin-4-yl]-(4-trifluoromethyl-pyridin-2-yl)-amine] | 0.268 µM
CN(CCO)c1nc(Nc2cc(C(F)(F)F)ccn2)cc(C2CCNC2)n1 (stereo not drawn) [2-{Methyl-[4-pyrrolidin-3-yl-6-(4-trifluoromethyl-pyridin-2-ylamino)-pyrimidin-2-yl]-amino}-ethanol] | 0.193 µM
